“Also recorded” adds a separate entry of the source.
Experiments:
[1] = Dissolving drug pills or powder in water for spectroscopy samples; format: physicochemical; conditions: pills or powder (Sigma A5000) in water, 0.1-10% (w/v) samples
Excerpt: Other test samples included anti-inflammatory drugs, e.g., Ibuprofen and Acetaminophen, dissolved in water. Yet other test samples included microcrystalline cellulose, which can be one primary filler material in anti-inflammatory drugs, dissolved in water. […] The Ibuprofen, Acetaminophen and microcrystalline cellulose samples held by the well plate 700B were used to perform spectroscopy of Ibuprofen, Acetaminophen and microcrystalline cellulose in reflectance mode using Benchtop spectrometers #5, #2 and #3. Further, the Ibuprofen and Acetaminophen samples were siphoned from the well plate 700B and combined into a few cuvettes. […] These Ibuprofen and Acetaminophen samples held by the cuvettes were used to perform spectroscopy of Ibuprofen and Acetaminophen in transmission mode using Benchtop spectrometers #4, #5, #2 and #3.
Some test samples included solutions of Ibuprofen having various concentrations. Ibuprofen powder (Sigma 11892) was dissolved in water directly in cuvettes having an optical path thickness of 10 mm. These solutions had Ibuprofen concentrations varying in the range of 0.1-10% (w/v). Other test samples included solutions of Acetaminophen having various concentrations. Acetaminophen powder (Sigma A5000) was dissolved in water directly in cuvettes having an optical path thickness of 10 mm. […]

cyclophilin = cyclophilin (Homo sapiens, UniProt P62937); conditions: cited from earlier work
Chain of cyclophilin (P62937 whole entry): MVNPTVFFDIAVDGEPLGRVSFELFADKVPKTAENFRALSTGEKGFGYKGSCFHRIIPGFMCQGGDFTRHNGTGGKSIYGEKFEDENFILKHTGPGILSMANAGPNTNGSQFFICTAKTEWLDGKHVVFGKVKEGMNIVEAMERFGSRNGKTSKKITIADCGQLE

[2] = test system: murine models of inflammatory bowel disease (IBD); conditions: numerous murine models; cited from earlier work

Question: Which solubility in water [1] does the source give for `CC(=O)Nc1ccc(O)cc1` [Acetaminophen] here?
Answer: limited solubility in water; also recorded: poor solubility

Question: Which “binding affinity for cyclophilin relative to cyclosporine A” value (cyclophilin) does the source give for `C=C/C=C/C[C@@H](C)[C@@H](O)[C@H]1C(=O)N[C@@H](CC)C(=O)N(C)CC(=O)N(C)[C@@H](CC(C)C)C(=O)N[C@@H](C(C)C)C(=O)N(C)[C@@H](CC(C)C)C(=O)N[C@@H](C)C(=O)N[C@H](C)C(=O)N(C)[C@@H](CC(C)C)C(=O)N(C)[C@@H](CC(C)C)C(=O)N(C)[C@@H](C(C)C)C(=O)N1C` [voclosporin] here?
Answer: comparable

Question: Which “effect on inflammation and pathological manifestations of IBD” value [2] does the source give for “L-glutamic acid polymer with L-alanine, L-lysine and L-tyrosine, acetate (salt) [Glatiramer acetate]” here?
Answer: reduce inflammation and ameliorate the pathological manifestations

Reference: patent publication US20220273196A1, “INGESTIBLE DEVICE AND ASSOCIATED METHODS” (Biora Therapeutics, Inc., priority 2017, published 2022)
